Measurements as given in patent US5648366A, “Substituted pyrrolidin-3-yl-alkyl-piperidines” (Merrell Pharmaceuticals Inc., priority 1995, dated 1997).
Structures can show the parent of a compound that is named as a salt.

Legend:
[1] = target: T1, NK1 receptor (Cavia porcellus, UniProt P30547); experiment: Antagonism of SP-induced plasma protein extravasation in guinea pig trachea; type: in vivo; parameters: SP-induced plasma protein extravasation in guinea pig trachea; from tissue; host or cells: living guinea pig; trachea and primary bronchi; conditions: i.v.; Example 3 versus Example 20A
T1 sequence (P30547 whole entry): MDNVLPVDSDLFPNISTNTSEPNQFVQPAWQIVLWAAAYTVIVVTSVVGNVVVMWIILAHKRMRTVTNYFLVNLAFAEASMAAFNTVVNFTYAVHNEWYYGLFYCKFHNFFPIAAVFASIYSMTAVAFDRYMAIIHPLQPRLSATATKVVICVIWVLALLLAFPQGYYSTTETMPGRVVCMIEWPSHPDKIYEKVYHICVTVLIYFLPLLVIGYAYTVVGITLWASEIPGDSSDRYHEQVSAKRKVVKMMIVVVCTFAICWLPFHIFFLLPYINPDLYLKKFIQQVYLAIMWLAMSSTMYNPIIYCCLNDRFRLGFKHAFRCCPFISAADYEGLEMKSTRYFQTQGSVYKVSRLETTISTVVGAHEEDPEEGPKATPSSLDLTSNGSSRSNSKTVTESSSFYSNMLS
Protocol: ANTAGONISM OF SP-INDUCED PLASMA PROTEIN EXTRAVASATION IN GUINEA PIG TRACHEA
SP-induced protein leakage through postcapillary venules was assessed by measuring Evans Blue dye accumulation in guinea pig trachea. Animals were anesthetized with pentobarbital then injected with Evans Blue dye (20 mg/kg, i.v., prepared in 0.9% NaCl solution). One minute after dye administration, the antagonist was administered (i.v.) followed by SP (0.3 nmole/kg, i.v.) and, after 5 min, excess dye removed from the circulation by transcardiac perfusion with 50 ml 0.9% NaCl solution. The trachea and primary bronchi were removed, blotted dry and weighed. Dye quantitation was performed spectrophotometrically ([…]) after extracting tissues in formamide for 24 hr at 50° C. Values were subtracted from background (dye only, no agonist). ED50 (dose of compound which inhibits SP-induced plasma protein extravasation by 50%) was calculated from linear regression analysis.

[2] = tested on: NK2 receptor; experiment: Antagonism of NKA aerosol induced respiratory effects in conscious guinea pigs; type: in vivo, guinea pig; conditions: 20 min prior to NKA aerosol (0.05%); for DYSPNEA ONSET: mean and SEM
Protocol: (§1) ANTAGONISM OF NKA AND CAPSAICIN INDUCED R[…] IN CONSCIOUS GUINEA PIGS
(§2) In vivo experiments were performed using male Duncan Hartley guinea pigs (250-350 g). Changes in conscious breathing patterns were monitored in four animals simultaneously using modified whole body plethysmography consisting of four small plexiglass boxes each connected to a reference box via Validyne DP 45-16 differential pressure transducers. The 4 boxes were equipped with an air supply line (also used for aerosol delivery) and an exhaust air line. Supply and exhaust lines were of the same length and narrow bore and arose from a common supply chamber and vented to a common exhaust chamber. This system was used to ensure that fluctuations in supply air and atmospheric pressure would remain in phase and be eliminated from the net signal by the differential pressure transducers. The analog pressure signals were digitalized via a Data Translation DT2821 A to D board. Data were collected at a rate of 100 samples/second/animal. Each cycle of pressure change was analyzed using the following parameters: rising and falling slope determined between minimum and maximum pressures, the ratio of rising over falling slope, and the magnitude of the change between initial trough pressure and peak cycle pressure. Using these values (and observing the animals) the pressure cycles were characterized into normal breaths, forced exhalations (apparent by abdominal heaving), significant respiratory events (SREs; usually coughs, less often sneezes or gasps which were characterized by transient, extremely large pressure increases which were distinguishable from noise) and movement/noise with a PCAT 286 running a System V UNIX operating system. Dyspnea was defined as a significant, sustained increase in plethysmograph pressure which was associated with an observable shift to labored breathing in the animal.
(§3) During the course of a typical experiment in which airway responsiveness to various bronchoconstricting agents was examined, aerosols were delivered for 19 min (0.33 ml/min) using a DeVilbiss Ultraneb 99 ultrasonic nebulizer and animals monitored during this time. Prior to nebulization, 1 min of resting breathing was collected to establish a baseline pressure. […] The vehicle for nebulization of all bronchoconstrictive agents was phosphate buffered saline (pH 7.4) which elicited no r[…] itself. Putative tachykinin antagonists were administered either (i.v.) 20 min prior to onset of aerosol exposure or orally 1 hour prior to onset (to guinea pigs after an overnight fast).
Table 6 illustrates the effects of the compounds of Example 3; Example 20A; and Example 5A on r[…] induced by NKA aerosol. […] These effects were dose dependent i.e. the higher the dose of compound, the greater attenuation of NKA-mediated effects.

[3] = tested on: NK1 and NK2 receptors; experiment: Antagonism of capsaicin aerosol induced respiratory effects in conscious guinea pigs; type: in vivo, guinea pig; conditions: for SRE NUMBER (coughs/gasps): 19 min capsaicin exposure; for SRE NUMBER (coughs/gasps) / DYSPNEA ONSET / MAXIMUM PRESSURE INCREASE: mean and SEM; for DYSPNEA INCIDENCE / DYSPNEA ONSET / MAXIMUM PRESSURE INCREASE: capsaicin aerosol 0.001%
Protocol: as §1, §2, §3
Capsaicin aerosol is known to promote release of the tachykinins SP and NKA from sensory nerves in the airways of guinea pigs which may then act upon NK1 and NK2 receptors, respectively to elicit r[…]. The ability of the compounds of Example 3A; and Example 20A to attenuate capsaicin-induced r[…], shown in Table 7a, is inferred from their ability to reduce incidence of dyspnea, prolong the onset of the response and reduce the number of coughs/gasps which occur during aerosol exposure.

[4] = target: T1, NK1 receptor; experiment: Antagonism of iodinated tachykinin (125I-substance P) binding to NK1 receptor in guinea pig lungs; parameters: tissue Keystone Biologicals, Cleveland, Ohio; host or cells: guinea pig lung membranes; conditions: guinea pig lungs; mean of several experiments; read-out: NK-1 IC50
Protocol: ANTAGONISM OF IODINATED TACHYKININ BINDING TO NK1 AND NK2 RECEPTORS BY PUTATIVE ANTAGONISTS
The NK1 receptor affinity of proposed tachykinin antagonists was evaluated in guinea pig lungs (Keystone Biologicals, Cleveland, Ohio), affinity for the NK2 receptor evaluated in HSKR-1 cells (which are mouse 3T3 fibroblasts expressing the human jejunal NK2 receptor) and NK-3 receptor affinity was evaluated in freshly collected guinea pig cerebral cortex. Tissues or cells were homogenized with a Polytron in 15 volumes of 50 mM Tris-HCl buffer (pH 7.4, 4° C.) and centrifuged. The pellet was resuspended in Tris-HCl buffer and was centrifuged; the pellet was washed twice by resuspension. The final pellet was resuspended at a concentration of 40 mg/ml for tissues (guinea pig lung and cerebral cortex) and 20 mg/ml for cells in incubation buffer and remained at room temperature for at least 15 min prior to use. Receptor binding was initiated by addition of 250 ul membrane preparation in duplicate to 0.1 nM of the following radioligands: ^125 I-Bolton Hunter Lys-3 labeled substance P; ^125 iodohistidyl-1-neurokinin A; and ^125 I-Bolton Hunter labeled Lys-4 eledoisin in a final volume of 500 ul of buffer containing 50 mM Tris-HCl (pH 7.4 at room temperature), 0.1% bovine serum albumin, 2 mM MnCl2, 40 ug/ml bacitracin, 4 µg/ml leupeptin and chymostatin, 1 μM thiorphan and various doses of the putative tachykinin antagonists. Incubations were performed at room temperature for 90 min (NK1 receptor assays) or 2 hr (NK2 and NK3 receptor assays); binding was terminated by addition of 50 mM Tris-HCl buffer (pH 7.4, 4° C.) and filtration under vacuum through GF/B filters presoaked with 0.1% polyethyleneimine (NK1 receptor assays) or 0.5% bovine serum albumin (NK2 and NK3 receptor assays). Filter bound radioactivity was quantitated in a gamma counter. Nonspecific binding was defined as binding in the presence of 1 μM substance P, neurokinin A, or eledoisin. Specific binding was calculated by subtracting nonspecific binding from total binding. Competition of iodinated SP, NKA, or eledoisin binding by test compounds or standards was expressed as a percentage of this maximum competition. IC50 values (concentration required to inhibit 50% of receptor binding) were generated for each of the test compounds by nonlinear regression using an iterative curve fitting program (GraphPAD Inplot, San Diego, Calif.).

## COc1cc(C(=O)N2CCC(CCN3CCC(C(N)=O)(c4ccccc4)CC3)(c3ccc(Cl)c(Cl)c3)C2)cc(OC)c1OC (single isomer, unassigned; (+)) [Example 20A, (+)-1-[2-[3-(3,4-dichloro-phenyl)-1-(3,4,-trimethoxy-benzoyl)-pyrrolidin-3-yl]-ethyl]-4-phenyl-piperidine-4-carboxylic acid amide hydrochloride]
[1]
  relative potency as NK-1 receptor antagonists (in words): equipotent
[2]; 1 mg/kg
  DYSPNEA INCIDENCE: 100%
  DYSPNEA ONSET: 451 ± 30 s
[2]; 5 mg/kg
  DYSPNEA INCIDENCE: 90%
  DYSPNEA ONSET: 706 ± 82 s
[2]; 10 mg/kg
  DYSPNEA INCIDENCE: 70%
  DYSPNEA ONSET: 829 ± 105 s
[3]; 1 mg/kg intravenous
  SRE NUMBER (coughs/gasps): 9.9 ± 2.7
  DYSPNEA INCIDENCE: 77.8%
  DYSPNEA ONSET: 331 ± 22 s
  MAXIMUM PRESSURE INCREASE: 1.0 ± 0.1 mmH2 O
[3]; 2.5 mg/kg intravenous
  SRE NUMBER (coughs/gasps): 8.3 ± 1.6
  DYSPNEA INCIDENCE: 100%
  DYSPNEA ONSET: 426 ± 57 s
  MAXIMUM PRESSURE INCREASE: 0.6 ± 0.1 mmH2 O
[3]; 5 mg/kg intravenous
  SRE NUMBER (coughs/gasps): 4.4 ± 1.9
  DYSPNEA INCIDENCE: 44.4%
  DYSPNEA ONSET: 597 ± 186 s
  MAXIMUM PRESSURE INCREASE: 0.8 ± 0.06 mmH2 O
[3]; 10 mg/kg intravenous
  SRE NUMBER (coughs/gasps): 3.3 ± 1.1
  DYSPNEA INCIDENCE: 55.6%
  DYSPNEA ONSET: 592 ± 71 s
  MAXIMUM PRESSURE INCREASE: 0.8 ± 0.1 mmH2 O
[3]; guinea pig, in vivo
  inhibition of endogenous tachykinins released by capsaicin aerosol (in words): inhibit the endogenous tachykinins released by capsaicin aerosol

## NC(=O)C1(c2ccccc2)CCN(CCC2(c3ccc(Cl)c(Cl)c3)CCN(C(=O)c3ccccc3)C2)CC1 (stereo not drawn) [Example 1, 1-[2-[3-(3,4-dichloro-phenyl)-1-benzoyl-pyrrolidin-3-yl]-ethyl]-4-phenyl-piperidine-4-carboxylic acid amide]
[4]
  IC50: 270 nM

## COc1ccccc1CC(=O)N1CCC(CCN2CCC(C(N)=O)(c3ccccc3)CC2)(c2ccc(Cl)c(Cl)c2)C1 (stereo not drawn) [Example 4, 1-(2-[3-(3,4-dichloro-phenyl)-1-[2-(2-methoxy-phenyl)-acetyl]-pyrrolidin-3-yl]-ethyl)-4-phenyl-piperidine-4-carboxylic acid amide]
[4]
  IC50: 48 nM

## COc1ccccc1C(=O)N1CCC(CCN2CCC(C(N)=O)(c3ccccc3)CC2)(c2ccc(Cl)c(Cl)c2)C1 (stereo not drawn) [Example 13, 1-[2-[3-(3,4-dichloro-phenyl)-1-(2-methoxy-benzoyl)-pyrrolidin-3-yl]-ethyl]-4-phenyl-piperidine-4-carboxylic acid amide]
[4]
  IC50: 74 nM
